# According to patent US9567339B2, “Primary carboxamides as BTK inhibitors” (AbbVie Inc., priority 2013, dated 2017):
# Molecular target: BTK, recombinant human catalytic domain (aa 393-659) (Homo sapiens (Human), UniProt Q06187)
# Assay: In vitro BTK kinase activity measured by time-resolved fluorescence resonance energy transfer (trFRET)
# Type: biochemical
# Settings: read-out: Btk IC50
# Chain of BTK, recombinant human catalytic domain (aa 393-659) (Q06187 393-659): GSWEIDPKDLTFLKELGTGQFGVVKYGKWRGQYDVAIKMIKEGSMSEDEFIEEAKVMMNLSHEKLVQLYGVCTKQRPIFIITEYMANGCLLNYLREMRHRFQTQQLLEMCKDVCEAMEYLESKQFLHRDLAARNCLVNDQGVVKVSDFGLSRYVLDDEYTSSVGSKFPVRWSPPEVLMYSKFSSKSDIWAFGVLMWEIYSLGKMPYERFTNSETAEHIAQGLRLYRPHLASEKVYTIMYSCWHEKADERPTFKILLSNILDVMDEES
row,SMILES,IC50 [nM]
1,Cc1nc(C(=O)Nc2cccc(-c3ccc(C(N)=O)c4[nH]c(C5=CCN(S(C)(=O)=O)CC5)cc34)c2C)cs1 [D.7.30],< 100
2,C=CC(=O)N1CCOC[C@@H](c2cnc(C(N)=O)c3[nH]ccc23)C1 [Example 3.1],100 to 1000
3,NC(=O)c1ccc(N2CCC[C@@H](n3cnc4ccccc4c3=O)C2)c2cc(-c3ccc(F)cc3)[nH]c12 [O.1.14*],100 to 1000
4,CCC(=O)NCc1ccccc1-c1cc2c(-c3cccc(NC(=O)c4nccs4)c3C)ccc(C(N)=O)c2[nH]1 [E.4.2],1000 to 10000
5,C=CC(=O)Nc1cccc(-c2ccc(C(N)=O)c3[nH]ccc23)c1C#N [E.1.27],100 to 1000
6,Cc1c(NC(=O)C2CCCN(C)C2)cccc1-c1ccc(C(N)=O)c2[nH]c(C3=CCN(S(C)(=O)=O)CC3)cc12 (stereo not shown) [D.7.37],100 to 1000
7,C=CC(=O)Nc1cc(-c2ccc(C(N)=O)c3[nH]ccc23)ccc1Cl [E.1.19],< 100
8,Cc1c(NC(=O)COc2ccc(C#N)cc2)cccc1-c1ccc(C(N)=O)c2[nH]c(C3=CCN(S(C)(=O)=O)CC3)cc12 [D.7.13],< 100

# Results, then the compound that gave them:
row,IC50 [nM],SMILES
1,< 100,C=CC(=O)N1CC(N(C)c2ccc(C(N)=O)c3[nH]c(-c4cnc5c(c4)COCC5)cc23)C1 [E.9.11]
2,1000 to 10000,Cc1ccc(-c2cc3c(Cc4c(Cl)cccc4Cl)ccc(C(N)=O)c3[nH]2)cc1 [U.1.1]
3,100 to 1000,Cc1ccc(-c2cc3c(-c4ccccn4)ccc(C(N)=O)c3[nH]2)cc1 [U.1.3]
4,< 100,C=CC(=O)N1CCC[C@@H](c2ccc(C(N)=O)c3[nH]c(C)cc23)C1 [E.9.7]
5,< 100,C=CC(=O)Nc1cccc(-c2ncc(C(N)=O)c3[nH]ccc23)c1C [E.1.9]
6,1000 to 10000,NC(=O)c1ccc(N2CCCC(n3cnc4cc(C5CC5)cc(F)c4c3=O)C2)c2cc[nH]c12 (stereo not shown) [O.1.13]
7,< 100,C=CC(=O)N1CC[C@@H](c2ccc(C(N)=O)c3[nH]c(-c4cc5n(n4)CCOC5)cc23)C1 [E.9.27]
8,< 100,C=CC(=O)N1CC(N(C)c2ccc(C(N)=O)c3[nH]c(-c4cn(C)nc4C)cc23)C1 [E.9.18]
9,< 100,CS(=O)(=O)N1CC=C(c2cc3c(N4CCC[C@@H](n5ccn6ccnc6c5=O)C4)ccc(C(N)=O)c3[nH]2)CC1 [O.1.4*]
10,< 100,C=CC(=O)N1CCC[C@H](c2cnc(C(N)=O)c3sc(-c4cnn(C)c4)nc23)C1 [E.9.36]
11,100 to 1000,C=CC(=O)Nc1ccc(F)c(-c2ccc(C(N)=O)c3[nH]ccc23)c1 [E.1.32]
12,100 to 1000,C=CC(=O)N1CC[C@H](c2ccc(C(N)=O)c3[nH]c(C)cc23)C1 [E.9.41*]
13,< 100,C=CC(=O)N1CC(N(C)c2ccc(C(N)=O)c3[nH]c(-c4ccc5c(c4)OCCC5)cc23)C1 [E.9.12]
14,< 100,C=CC(=O)N1CC(N(C)c2ccc(C(N)=O)c3[nH]c([C@H]4CCOC4)cc23)C1 [Example 5.2]
15,100 to 1000,C=CC(=O)N1C[C@H](CO)C[C@H](c2ccc(C(N)=O)c3[nH]ccc23)C1 [E.9.47]

# Same assay, conditions: trFRET, 0.001 mM ATP, biotin-TYR1 peptide substrate; read-out: Btk IC50
row,SMILES,IC50 [nM]
1,Cc1c(-c2ccc(C(N)=O)c3[nH]c(C4=CCN(S(C)(=O)=O)CC4)cc23)cccc1-n1cnc2ccccc2c1=O [A.4.18],< 100
2,"Cc1ccc(-c2cc3c(Nc4ccnn4C)ccc(C(N)=O)c3[nH]2)cc1 [Preparation #T.1, 4-(1-Methyl-1H-pyrazol-5-ylamino)-2-p-tolyl-1H-indole-7-carboxamide]",100 to 1000
3,"C=CC(=O)N1CC(N(C)c2cnc(C(N)=O)c3[nH]ccc23)C1 [Example 29, 4-((1-Acryloylazetidin-3-yl)(methyl)amino)-1H-pyrrolo[2,3-c]pyridine-7-carboxamide]",< 100
4,C=CC(=O)Nc1cccc(-c2ccc(C(N)=O)c3[nH]c(-c4cccc(N(C)C)c4)cc23)c1C [A.1.27],< 100
5,"Cc1c(NC(=O)c2nccs2)cccc1-c1ccc(C(N)=O)c2[nH]c(-c3ccccc3CN)cc12 [Example 1, N-(3-(2-(2-(aminomethyl)phenyl)-7-carbamoyl-1H-indol-4-yl)-2-methylphenyl)thiazole-2-carboxamide]",100 to 1000
6,CC(=O)N1CC=C(c2cc3c(-c4cccc(-n5cnc6ccccc6c5=O)c4C)ccc(C(N)=O)c3[nH]2)CC1 [A.3.1],< 100
7,"Cc1c(N)cccc1-c1ccc(C(N)=O)c2[nH]c(C3=CCC(F)(F)CC3)cc12 [Example 21, 4-(3-Amino-2-methylphenyl)-2-(4,4-difluorocyclohex-1-enyl)-1H-indole-7-carboxamide]",< 100
8,C=C(CC)C(=O)Nc1cccc(-c2ccc(C(N)=O)c3[nH]ccc23)c1C [D.8.11],1000 to 10000
9,Cc1c(NC(=O)c2ccc(C(F)F)cc2)cccc1-c1ccc(C(N)=O)c2[nH]c(C3=CCN(S(C)(=O)=O)CC3)cc12 [A.4.10],< 100
10,CN(C)C(=O)/C=C/C(=O)Nc1cccc(-c2ccc(C(N)=O)c3[nH]ccc23)c1 [D.4.2],1000 to 10000
11,C=CC(=O)NCc1ccccc1-c1cc2c(-c3cccc(NC(=O)c4nccs4)c3C)ccc(C(N)=O)c2[nH]1 [D.1.2],1000 to 10000
12,Cc1ccc(-c2cc3c(-c4cnn(C)c4)ccc(C(N)=O)c3[nH]2)cc1 [A.8.7],100 to 1000
13,C=CC(=O)Nc1cccc(-c2ccc(C(N)=O)c3[nH]c(-c4ccccc4)cc23)c1C [A.1.33],< 100
14,CS(=O)(=O)N1CC=C(c2cc3c(-c4cccc(Nc5ccnc(C#N)n5)c4)ccc(C(N)=O)c3[nH]2)CC1 [A.4.8],< 100
15,C=CC(=O)Nc1cccc(-c2ccc(C(N)=O)c3[nH]c(-c4cnn(CC)c4)cc23)c1C [A.1.6],< 100
16,C=CC(=O)Nc1cccc(-c2ccc(C(N)=O)c3[nH]c(-c4ccnn4C4CCCCO4)cc23)c1C (stereo not shown) [A.1.2],< 100
17,CN1CCC=C(C(=O)Nc2cccc(-c3ccc(C(N)=O)c4[nH]ccc34)c2)C1 [E.2.2],1000 to 10000
18,Cc1c(NC(=O)c2nccs2)cccc1-c1ccc(C(N)=O)c2[nH]c(-c3ccccc3CNC(=O)COc3ccccc3)cc12 [D.1.6],1000 to 10000
19,"Cc1c(-c2ccc(C(N)=O)c3[nH]c(-c4cnn(C)c4)nc23)cccc1-n1cnc2ccccc2c1=O [Example 14, 2-(1-Methyl-1H-pyrazol-4-yl)-4-(2-methyl-3-(4-oxoquinazolin-3(4H)-yl)phenyl)-1H-benzo[d]imidazole-7-carboxamide]",100 to 1000

# Further lines, results first:
row,IC50 [nM],SMILES
1,< 100,Cc1c(-c2ccc(C(N)=O)c3[nH]c(C4=CCOCC4)cc23)cccc1-n1cnc2ccccc2c1=O [A.11.1]
2,< 100,"CS(=O)(=O)N1CC=C(c2cc3c(-c4ccccc4N)ccc(C(N)=O)c3[nH]2)CC1 [A.4.2, 4-(2-aminophenyl)-2-(1-(methylsulfonyl)-1,2,3,6-tetrahydropyridin-4-yl)-1H-indole-7-carboxamide]"
3,< 100,"C=CC(=O)N1CCCC(c2ccc(C(N)=O)c3[nH]c(-c4cnn(C)c4)cc23)C1 (stereo not shown) [Example 26, 4-(1-Acryloylpiperidin 3-yl)-2-(1-methyl-1H-pyrazol-4-yl)-1H-indole-7-carboxamide]"
4,< 100,C=CC(=O)Nc1cccc(-c2ccc(C(N)=O)c3[nH]c(-c4cnn(CCN5CCOCC5)c4)cc23)c1C [A.1.8]
5,100 to 1000,Cc1ccc(-c2cc3c(-c4c(C)noc4C)ccc(C(N)=O)c3[nH]2)cc1 [A.8.2]
6,< 100,C=CC(=O)Nc1cccc(-c2ccc(C(N)=O)c3[nH]c(-c4cccc(C(=O)N5CCN(C)CC5)c4)cc23)c1C [A.1.31]
7,1000 to 10000,CC#CC(=O)NCc1ccccc1-c1cc2c(-c3cccc(NC(=O)c4nccs4)c3C)ccc(C(N)=O)c2[nH]1 [D.1.1]
8,< 100,C=CC(=O)Nc1cccc(-c2ccc(C(N)=O)c3[nH]c(-c4cccc(OC)c4)cc23)c1C [A.1.22]
9,< 100,C=CC(=O)Nc1cccc(-c2ccc(C(N)=O)c3[nH]c(-c4cccc(C(=O)OC)c4)cc23)c1C [A.1.19]
10,< 100,CCNC(=O)/C=C\C(=O)Nc1cccc(-c2ccc(C(N)=O)c3[nH]ccc23)c1 [D.9.2]
11,< 100,Cc1c(NC(=O)c2nccs2)cccc1-c1ccc(C(N)=O)c2[nH]c(C3=CCN(S(C)(=O)=O)CC3)cc12 [A.4.17]
12,< 100,"CS(=O)(=O)N1CC=C(c2cc3c(N4CCC[C@@H](N5CCc6ccccc6C5=O)C4)ccc(C(N)=O)c3[nH]2)CC1 [Example 13, (R)-2-(1-(Methylsulfonyl)-1,2,3,6-tetrahydropyridin-4-yl)-4-(3-(1-oxo-3,4-dihydroisoquinolin-2(1H)-yl)piperidin-1-yl)-1H-indole-7-carboxamide]"
13,< 100,C=CC(=O)Nc1cccc(-c2ccc(C(N)=O)c3[nH]c(-c4cccnc4F)cc23)c1C [A.1.17]
14,< 100,CS(=O)(=O)N1CC=C(c2cc3c(-c4ccccc4)ccc(C(N)=O)c3[nH]2)CC1 [A.4.7]
15,100 to 1000,"C=CC(=O)N1CCC[C@H](c2ccc(C(N)=O)c3[nH]ccc23)C1 [30 (R), (R)-4-(1-Acryloylpiperidin-3-yl)-1H-indole-7-carboxamide]"
16,< 100,C=CC(=O)Nc1cccc(-c2ccc(C(N)=O)c3[nH]c(-c4ccc(OC)nc4)cc23)c1C [A.1.41]
17,< 100,C=CC(=O)Nc1cccc(-c2ccc(C(N)=O)c3[nH]c(-c4cn(C)nc4C)cc23)c1C [A.1.5]
18,100 to 1000,"C=CC(=O)N1CC([C@H](C)c2ccc(C(N)=O)c3[nH]ccc23)C1 [28 (S), (S)-4-(1-(1-Acryloylazetidin-3-yl)ethyl)-1H-indole-7-carboxamide]"
19,< 100,"C=CC(=O)Nc1cccc(-c2ccc(C(N)=O)c3[nH]c(C4=CCC(F)(F)CC4)cc23)c1C [E.1, 4-(3-Acrylamido-2-methylphenyl)-2-(4,4-difluorocyclohex-1-en-1-yl)-1H-indole-7-carboxamide]"
20,< 100,"C=CC(=O)Nc1cccc(-c2cnc(C(N)=O)c3[nH]ccc23)c1C [Example 17, 4-(3-Acrylamido-2-methylphenyl)-1H-pyrrolo[2,3-c]pyridine-7-carboxamide]"
21,100 to 1000,Cc1c(NC(=O)/C=C/c2ccccn2)cccc1-c1ccc(C(N)=O)c2[nH]ccc12 [D.8.3]
22,< 100,Cc1c(-c2ccc(C(N)=O)c3[nH]c(-c4cccnc4)cc23)cccc1N1Cc2ccc(F)cc2C1=O [A.7.6]
23,< 100,C=CC(=O)Nc1cccc(-c2ccc(C(N)=O)c3[nH]c(-c4cccnc4OC)cc23)c1C [A.1.18]
24,100 to 1000,NC(=O)c1ccc(-c2ccn[nH]2)c2cc(-c3ccc(F)cc3)[nH]c12 [A.9.5]
25,100 to 1000,Cc1ccc(-c2cc3c(-c4ccsc4)ccc(C(N)=O)c3[nH]2)cc1 [A.8.10]
